The pA2 is the negative logarithm of the molar antagonist concentration that doubles the agonist concentration needed for the same response. The low end stands for a weaker antagonist, the high end for a more potent antagonist. Broadly, the Ki is the dissociation constant of the complex between target and ligand, obtained from inhibition or displacement. Lower therefore signals higher affinity.

The values below come from ChEMBL document CHEMBL1131296 (J Med Chem, 1998).

The target of assay [1] is T1, Adrenergic receptor alpha-2 (Rattus norvegicus, UniProt P22086+P19328+P22909).
T1 sequence (P22086 whole entry): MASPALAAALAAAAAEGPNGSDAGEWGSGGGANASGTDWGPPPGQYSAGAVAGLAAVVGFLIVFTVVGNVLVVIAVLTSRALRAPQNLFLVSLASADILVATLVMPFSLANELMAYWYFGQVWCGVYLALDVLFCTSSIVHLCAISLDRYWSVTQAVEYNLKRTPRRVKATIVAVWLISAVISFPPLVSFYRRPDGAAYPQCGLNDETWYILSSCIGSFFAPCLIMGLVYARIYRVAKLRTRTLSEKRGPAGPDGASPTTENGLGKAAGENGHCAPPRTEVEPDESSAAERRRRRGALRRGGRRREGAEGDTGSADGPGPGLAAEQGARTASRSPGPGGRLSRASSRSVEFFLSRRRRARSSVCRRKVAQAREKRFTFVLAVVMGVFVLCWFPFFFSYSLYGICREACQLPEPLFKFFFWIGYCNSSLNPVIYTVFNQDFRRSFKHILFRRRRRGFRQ
T1 sequence (P19328 whole entry): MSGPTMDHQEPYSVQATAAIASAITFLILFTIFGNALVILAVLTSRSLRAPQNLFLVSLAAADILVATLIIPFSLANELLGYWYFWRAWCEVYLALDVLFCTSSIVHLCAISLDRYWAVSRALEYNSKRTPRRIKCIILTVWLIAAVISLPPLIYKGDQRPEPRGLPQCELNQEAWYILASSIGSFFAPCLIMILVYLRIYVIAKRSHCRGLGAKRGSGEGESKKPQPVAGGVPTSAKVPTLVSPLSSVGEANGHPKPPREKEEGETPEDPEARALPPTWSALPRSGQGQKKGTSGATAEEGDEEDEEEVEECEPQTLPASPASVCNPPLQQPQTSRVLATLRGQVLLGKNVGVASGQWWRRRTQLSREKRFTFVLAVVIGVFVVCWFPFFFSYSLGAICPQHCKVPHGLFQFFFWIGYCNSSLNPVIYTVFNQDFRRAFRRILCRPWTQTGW
T1 sequence (P22909 whole entry): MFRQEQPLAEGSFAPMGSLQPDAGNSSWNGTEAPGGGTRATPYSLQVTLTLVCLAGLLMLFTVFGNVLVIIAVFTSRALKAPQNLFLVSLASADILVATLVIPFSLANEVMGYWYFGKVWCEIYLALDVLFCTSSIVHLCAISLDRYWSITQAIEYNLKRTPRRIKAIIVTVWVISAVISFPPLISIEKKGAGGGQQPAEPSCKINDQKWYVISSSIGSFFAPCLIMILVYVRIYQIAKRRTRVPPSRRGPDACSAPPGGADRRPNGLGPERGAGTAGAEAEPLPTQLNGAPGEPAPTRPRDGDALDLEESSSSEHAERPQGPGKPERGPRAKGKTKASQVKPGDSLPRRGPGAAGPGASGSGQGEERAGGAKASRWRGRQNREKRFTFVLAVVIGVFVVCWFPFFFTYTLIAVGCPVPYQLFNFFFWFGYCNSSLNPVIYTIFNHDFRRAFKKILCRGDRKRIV
As to the kind of experiment: Antagonism of the clonidine-induced depression of twitch responses of rat isolated prostatic vas deferens.

In assay [2] the target is T2, Alpha-1B adrenergic receptor (Homo sapiens, UniProt P35368).
T2 sequence (P35368 whole entry): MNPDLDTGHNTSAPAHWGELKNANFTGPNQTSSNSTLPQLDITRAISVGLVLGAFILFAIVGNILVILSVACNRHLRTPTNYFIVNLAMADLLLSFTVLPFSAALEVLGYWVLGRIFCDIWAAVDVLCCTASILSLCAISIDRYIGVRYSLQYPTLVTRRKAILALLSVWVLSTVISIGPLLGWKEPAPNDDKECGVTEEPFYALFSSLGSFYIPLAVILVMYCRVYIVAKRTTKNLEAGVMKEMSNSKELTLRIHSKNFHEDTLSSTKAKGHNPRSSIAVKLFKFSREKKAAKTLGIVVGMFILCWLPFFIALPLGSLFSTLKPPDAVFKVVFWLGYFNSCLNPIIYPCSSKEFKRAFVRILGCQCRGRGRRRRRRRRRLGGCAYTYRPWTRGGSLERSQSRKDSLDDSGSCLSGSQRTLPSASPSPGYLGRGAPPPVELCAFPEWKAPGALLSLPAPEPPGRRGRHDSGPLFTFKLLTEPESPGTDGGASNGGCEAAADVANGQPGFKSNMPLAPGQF
As to the kind of experiment: Binding affinity at human cloned Alpha-1B adrenergic receptor in chinese hamster ovary cells by [3H]prazosin displacement. The class given is cell-based, CHO.

Assay [3] addresses T3, Alpha-1A adrenergic receptor (Homo sapiens, UniProt P35348).
T3 sequence (P35348 whole entry): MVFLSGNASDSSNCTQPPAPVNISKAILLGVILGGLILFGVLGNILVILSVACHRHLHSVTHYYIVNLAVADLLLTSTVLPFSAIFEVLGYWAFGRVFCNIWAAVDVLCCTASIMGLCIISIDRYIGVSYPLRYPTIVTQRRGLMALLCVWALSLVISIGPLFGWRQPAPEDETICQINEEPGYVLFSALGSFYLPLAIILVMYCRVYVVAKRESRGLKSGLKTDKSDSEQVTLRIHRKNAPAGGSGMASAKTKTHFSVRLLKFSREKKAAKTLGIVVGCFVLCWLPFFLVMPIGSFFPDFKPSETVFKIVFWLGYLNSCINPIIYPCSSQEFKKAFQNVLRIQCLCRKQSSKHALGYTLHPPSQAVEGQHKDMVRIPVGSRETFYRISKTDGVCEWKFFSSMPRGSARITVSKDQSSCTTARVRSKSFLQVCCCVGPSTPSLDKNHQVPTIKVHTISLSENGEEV
As to the kind of experiment: Binding affinity at human cloned Alpha-1A adrenergic receptor in chinese hamster ovary cells by [3H]-prazosin displacement. The class given is cell-based, CHO.

Assay [4] addresses T4, Alpha-1D adrenergic receptor (Rattus norvegicus, UniProt P23944).
T4 sequence (P23944 whole entry): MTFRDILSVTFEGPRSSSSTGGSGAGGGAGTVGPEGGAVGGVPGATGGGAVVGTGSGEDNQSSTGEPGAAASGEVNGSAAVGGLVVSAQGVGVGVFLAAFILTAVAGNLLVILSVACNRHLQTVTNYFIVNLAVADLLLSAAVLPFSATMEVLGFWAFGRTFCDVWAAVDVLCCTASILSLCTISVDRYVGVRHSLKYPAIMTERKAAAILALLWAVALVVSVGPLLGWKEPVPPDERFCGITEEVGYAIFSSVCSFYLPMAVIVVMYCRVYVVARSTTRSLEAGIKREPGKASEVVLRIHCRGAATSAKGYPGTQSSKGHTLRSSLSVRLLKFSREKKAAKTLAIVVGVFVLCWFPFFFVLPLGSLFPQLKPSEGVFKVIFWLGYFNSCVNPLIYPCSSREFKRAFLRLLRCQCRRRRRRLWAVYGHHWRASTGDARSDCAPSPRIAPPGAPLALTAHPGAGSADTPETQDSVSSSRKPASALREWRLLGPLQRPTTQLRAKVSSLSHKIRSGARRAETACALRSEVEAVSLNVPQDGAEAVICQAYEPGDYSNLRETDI
As to the kind of experiment: Antagonism of norepinephrine induced contraction of rat isolated thoracic aorta. The note with it: read-out: pA2 (converted). The class given is functional, tissue-based.

In assay [1], `COc1cc2nc(N(C)CCCCCCN(C)C(=O)c3cccc(CN(C)C)c3)nc(N)c2cc1OC` registered a pA2 of less than 5. For the same compound, the Ki in assay [2] was 0.166 nM; in assay [3], 0.324 nM. The Kb in assay [4] was 5.5 nM.
